Measured values as given in PMC5011342, “A high throughput drug screening assay to identify compounds that promote oligodendrocyte differentiation using acutely dissociated and purified oligodendrocyte precursor cells” (BMC Research Notes, 2016).
Like-named read-outs stand apart in the source and are kept apart here.

Assays:
[1] = tested on: acutely dissociated and purified rat OPCs; test: Acute OL differentiation assay (MBP expression/cell, immunofluorescent image quantification); format: cell-based; conditions: Rattus norvegicus, sheet "All OLga data"
Outline: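 Oligodendrocyte precursor cells were enriched from P6-P7 Sprague–Dawley rat brains by immunopanning (RAN-2 and GalC depletion, O4 selection), plated at 5000 cells/well in serum-free, mitogen-free differentiation media on PDL/laminin 96-well view plates, centrifuged at 200×g, and pre-incubated 1–2 h before test compounds were added in quadruplicate. On DIV4, cells were fixed, stained for MBP and DAPI, imaged automatically, and MBP expression per cell was quantified.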

expanded OPCs = test: cells; conditions: for viability at 0.1 µM / viability at 1 µM / viability at 10 µM: Rattus norvegicus, 72 h; for 0.1 µM (% DMSO) / 1 µM (% DMSO) / 10 µM (% DMSO): alamarBlue viability of expanded OPCs, relative to DMSO control; for 0.1 µM (% DMSO): compound at 0.1 µM; for 1 µM (% DMSO): compound at 1 µM; for 10 µM (% DMSO): compound at 10 µM
Outline: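 Expanded OPCs seeded at 10,000 cells/well in differentiation media, then exposed to NCC library compounds at 10, 1 and 0.1 µM (quadruplicate, 0.1% DMSO) for three days. Viability read as alamarBlue fluorescence (560/590 nm) after 4 h at 37 °C; tunicamycin 5 ng/ml served as toxicity control.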

[2] = test compound at 2 uM, NCC library screen, relative to quetiapine, read-out: 2 uM (% Quet)
[3] = test compound at 10 uM, NCC library screen, relative to quetiapine, read-out: 10 uM (% Quet)
[4] = read-out: 0.1 µM (% DMSO), alamarBlue viability, NCC library compound at 0.1 µM, sheet "All Tox data"
[5] = read-out: 1 µM (% DMSO), alamarBlue viability, NCC library compound at 1 µM, sheet "All Tox data"
[6] = read-out: 10 µM (% DMSO), alamarBlue viability, NCC library compound at 10 µM, sheet "All Tox data"
[7] = 0.4 uM test compound, relative to quetiapine, read-out: OL differentiation, 0.4 uM (% Quet)
[8] = read-out: 0.1 µM (% DMSO), alamarBlue viability of expanded OPCs, compound at 0.1 µM, sheet All Tox data
[9] = read-out: 1 µM (% DMSO), alamarBlue viability of expanded OPCs, compound at 1 µM, sheet All Tox data
[10] = read-out: 10 µM (% DMSO), alamarBlue viability of expanded OPCs, compound at 10 µM, sheet All Tox data
[11] = 2 uM test compound, relative to quetiapine, read-out: OL differentiation, 2 uM (% Quet)
[12] = 10 uM test compound, relative to quetiapine, read-out: OL differentiation, 10 uM (% Quet)

CC1Cc2ccccc2N1NC(=O)c1ccc(Cl)c(S(N)(=O)=O)c1 (stereo not shown) [Indapamide]
activation at 2 µM [1, 2]: -10%
activation at 10 µM [1, 3]: -12.4%
viability at 0.1 µM (expanded OPCs; [4]): 95.2%
viability at 1 µM (expanded OPCs; [5]): 92.1%
viability at 10 µM (expanded OPCs; [6]): 101%

CNC1CC(c2ccc(Cl)c(Cl)c2)c2ccccc21 (stereo not shown) [Indatraline]
activation at 0.08 µM ([1]; 0.08 uM test compound, relative to quetiapine, read-out: OL differentiation, 0.08 uM (% Quet)): 15.3%
activation at 0.4 µM [1, 7]: 24.5%
viability at 0.1 µM (expanded OPCs; [8]): 75.5%
viability at 1 µM (expanded OPCs; [9]): 41.1%
viability at 10 µM (expanded OPCs; [10]): 11.7%

CC(C)(C)NC(=O)[C@@H]1CN(Cc2cccnc2)CCN1C[C@@H](O)C[C@@H](Cc1ccccc1)C(=O)N[C@H]1c2ccccc2C[C@H]1O [Indinavir]
activation at 2 µM [1, 11]: 13.4%
activation at 10 µM [1, 12]: -44.2%
viability at 0.1 µM (expanded OPCs; [8]): 105%
viability at 1 µM (expanded OPCs; [9]): 91.7%
viability at 10 µM (expanded OPCs; [10]): 92.2%

O=C1Nc2ccccc2/C1=C1/Nc2ccccc2C1=O [Indirubin]
activation at 0.4 µM [1, 7]: 26%
activation at 2 µM [1, 11]: 108%
viability at 0.1 µM (expanded OPCs; [4]): 97.6%
viability at 1 µM (expanded OPCs; [5]): 78.2%
viability at 10 µM (expanded OPCs; [6]): 46.3%

COc1ccc2c(c1)c(CC(=O)O)c(C)n2C(=O)c1ccc(Cl)cc1 [Indomethacin]
activation at 2 µM [1, 11]: -10.2%
activation at 10 µM [1, 12]: 2.6%
viability at 0.1 µM (expanded OPCs; [8]): 81.3%
viability at 1 µM (expanded OPCs; [9]): 85.4%
viability at 10 µM (expanded OPCs; [10]): 87.1%

CC(C)Oc1ccc2c(=O)c(-c3ccccc3)coc2c1 [Ipriflavone]
activation at 2 µM [1, 11]: 22.5%
activation at 10 µM [1, 12]: 32%
viability at 0.1 µM (expanded OPCs; [8]): 87.3%
viability at 1 µM (expanded OPCs; [9]): 92.1%
viability at 10 µM (expanded OPCs; [10]): 117%

CCCCC1=NC2(CCCC2)C(=O)N1Cc1ccc(-c2ccccc2-c2nnn[nH]2)cc1 [Irbesartan]
activation at 2 µM [1, 11]: 0.6%
activation at 10 µM [1, 12]: -16.7%
viability at 0.1 µM (expanded OPCs; [4]): 88.9%
viability at 1 µM (expanded OPCs; [5]): 92.8%
viability at 10 µM (expanded OPCs; [6]): 89.7%

CCc1c2c(nc3ccc(OC(=O)N4CCC(N5CCCCC5)CC4)cc13)-c1cc3c(c(=O)n1C2)COC(=O)[C@]3(O)CC [Irinotecan]
activation at 0.08 µM ([1]; test compound at 0.08 uM, NCC library screen, relative to quetiapine, read-out: 0.08 uM (% Quet)): -38.4%
activation at 0.4 µM ([1]; test compound at 0.4 uM, NCC library screen, relative to quetiapine, read-out: 0.4 uM (% Quet)): -140%
viability at 0.1 µM (expanded OPCs; [4]): 82.8%
viability at 1 µM (expanded OPCs; [5]): 49.7%
viability at 10 µM (expanded OPCs; [6]): 27.9%

Nc1nc(N)nc(-c2cc(Cl)ccc2Cl)n1 [Irsogladine]
activation at 2 µM [1, 11]: 20.6%
activation at 10 µM [1, 12]: 6.1%
viability at 0.1 µM (expanded OPCs; [8]): 92.2%
viability at 1 µM (expanded OPCs; [9]): 92.7%
viability at 10 µM (expanded OPCs; [10]): 94.8%

NNC(=O)c1ccncc1 [Isoniazid]
activation at 2 µM [1, 2]: -8.7%
activation at 10 µM [1, 3]: 3.1%
0.1 µM (% DMSO) (expanded OPCs): 98.2 % DMSO
1 µM (% DMSO) (expanded OPCs): 98.4 % DMSO
10 µM (% DMSO) (expanded OPCs): 66.3 % DMSO

CC(C)NCC(O)c1ccc(O)c(O)c1 (stereo not shown) [Isoproterenol]
activation at 2 µM [1, 2]: -19.5%
activation at 10 µM [1, 3]: -148%
0.1 µM (% DMSO) (expanded OPCs): 95.1 % DMSO
1 µM (% DMSO) (expanded OPCs): 94.6 % DMSO
10 µM (% DMSO) (expanded OPCs): 67.7 % DMSO

O=c1c(O[C@@H]2O[C@H](CO)[C@@H](O)[C@H](O)[C@H]2O)c(-c2ccc(O)c(O)c2)oc2cc(O)cc(O)c12 [Isoquercitrin]
activation at 2 µM [1, 11]: 12.9%
activation at 10 µM [1, 12]: 8.7%
viability at 0.1 µM (expanded OPCs; [8]): 85.5%
viability at 1 µM (expanded OPCs; [9]): 92.9%
viability at 10 µM (expanded OPCs; [10]): 101%

CC1=C(/C=C/C(C)=C/C=C/C(C)=C\C(=O)O)C(C)(C)CCC1 [Isotretinoin]
activation at 2 µM ([1]; test compound at 2 uM, MBP expression relative to quetiapine, NCC library screen, read-out: 2 uM (% Quet)): -19.2%
activation at 10 µM ([1]; test compound at 10 uM, MBP expression relative to quetiapine, NCC library screen, read-out: 10 uM (% Quet)): -6.2%
0.1 µM (% DMSO) (expanded OPCs): 104.5 % DMSO
1 µM (% DMSO) (expanded OPCs): 112.6 % DMSO
10 µM (% DMSO) (expanded OPCs): 136.3 % DMSO

CC(COc1ccccc1)NC(C)C(O)c1ccc(O)cc1 (stereo not shown) [Isoxsuprine]
activation at 2 µM [1, 2]: 13.2%
activation at 10 µM [1, 3]: 2.2%
0.1 µM (% DMSO) (expanded OPCs): 97.2 % DMSO
1 µM (% DMSO) (expanded OPCs): 91.9 % DMSO
10 µM (% DMSO) (expanded OPCs): 60.9 % DMSO
